The values that follow are results of earlier work, collected in US9480691B1, “Topical liquid containing refined peanut oil for treating skin proliferation or inflammation disorders” (Hill Dermaceuticals, Inc., priority 2009, dated 2016).

The data set relates to hypothalamus-pituitary-adrenal (HPA) axis. Conditions: at effective and prescribed doses.

As to `CCC(=O)O[C@]1(C(=O)CCl)[C@@H](C)C[C@H]2[C@@H]3CCC4=CC(=O)C=C[C@]4(C)[C@@]3(F)[C@@H](O)C[C@@]21C` [clobetasol propionate, (11β,16β)-21-chloro-9-fluoro-11-hydroxy-16-methyl-17-(1-oxo-propoxy)pregna-1,4-diene,3,10-dione], the “effect on HPA axis” value is listed as “suppress the hypothalamus-pituitary-adrenal (HPA) axis”.
